Test results: ChEMBL document CHEMBL1201862, “PubChem BioAssay data set” (2004)
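A five-concentration, 48-hour dose response in 96-well plates underlies each endpoint, interpolated linearly between surrounding concentrations. Here, GI50 denotes the concentration required for 50% inhibition of growth.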 Active and inactive are the calls of the source. Rule as the data show it: active = GI50 up to about 1.1 µM and inactive = higher.

What was measured:
Assay in all cases: DTP human tumour cell line panel, 48 h
[1] = system: SW-620
[2] = system: LOX IMVI
[3] = system: 786-0
[4] = system: MOLT-4
[5] = system: A549
[6] = system: OVCAR-3
[7] = system: ACHN
[8] = system: SK-OV-3
[9] = system: DMS-273
[10] = system: SK-MEL-28
[11] = system: SF-539
[12] = system: CAKI-1
[13] = system: UACC-62
[14] = system: SN12C
[15] = system: A498
[16] = system: Malme-3M
[17] = system: COLO 205
[18] = system: T47D
[19] = system: MDA-MB-231
[20] = system: Hs-578T

| SMILES | GI50 [1] | GI50 [2] | GI50 [3] | GI50 [4] | GI50 [5] | GI50 [6] | GI50 [7] | GI50 [8] | GI50 [9] | GI50 [10] | GI50 [11] | GI50 [12] | GI50 [13] | GI50 [14] | GI50 [15] | GI50 [16] | GI50 [17] | GI50 [18] | GI50 [19] | GI50 [20] |
| --- | --- | --- | --- | --- | --- | --- | --- | --- | --- | --- | --- | --- | --- | --- | --- | --- | --- | --- | --- | --- |
| NC(=O)N/N=C(\Cc1nc2ccc(C(=O)c3ccccc3)cc2nc1O)C(=O)Nc1ccc(Br)cc1 | > 100 µM (inactive) | > 100 µM (inactive) | > 100 µM (inactive) | > 100 µM (inactive) | > 100 µM (inactive) | > 100 µM (inactive) | > 100 µM (inactive) | > 100 µM (inactive) | > 100 µM (inactive) | > 100 µM (inactive) | > 100 µM (inactive) | > 100 µM (inactive) | > 100 µM (inactive) | > 100 µM (inactive) | > 100 µM (inactive) | > 100 µM (inactive) | – | – | – | – |
| O=C(O)c1c[nH]cc1C(=O)O | > 100 µM (inactive) | > 100 µM (inactive) | > 100 µM (inactive) | > 100 µM (inactive) | > 100 µM (inactive) | > 100 µM (inactive) | – | > 100 µM (inactive) | > 100 µM (inactive) | – | > 100 µM (inactive) | > 100 µM (inactive) | > 100 µM (inactive) | > 100 µM (inactive) | > 100 µM (inactive) | > 100 µM (inactive) | > 100 µM (inactive) | – | – | – |
| OCc1ccc2[n+](c1)CCC1c3ccccc3NC21 (centres undefined) | > 300 µM (inactive) | > 300 µM (inactive) | > 300 µM (inactive) | > 300 µM (inactive) | > 300 µM (inactive) | 240 µM (inactive) | > 300 µM (inactive) | > 300 µM (inactive) | > 300 µM (inactive) | > 300 µM (inactive) | > 300 µM (inactive) | > 300 µM (inactive) | > 300 µM (inactive) | > 300 µM (inactive) | – | 75.5 µM (inactive) | > 300 µM (inactive) | – | – | – |
| Cc1c(-c2coc(-c3ccccc3)n2)c(=O)n(-c2ccccc2)n1C | 37.8 µM (inactive) | > 100 µM (inactive) | > 100 µM (inactive) | 25.6 µM (inactive) | > 100 µM (inactive) | > 100 µM (inactive) | > 100 µM (inactive) | > 100 µM (inactive) | > 100 µM (inactive) | > 100 µM (inactive) | > 100 µM (inactive) | 0.184 µM (active) | – | > 100 µM (inactive) | > 100 µM (inactive) | 98.6 µM (inactive) | 78.3 µM (inactive) | – | – | – |
| CCOP(=O)(C/C(O)=C1\C(=O)C(CCCCNC(=O)OC(C)(C)C)N(Cc2ccccc2)C1=O)OCC (centres undefined) | – | > 100 µM (inactive) | > 100 µM (inactive) | 78.7 µM (inactive) | > 100 µM (inactive) | > 100 µM (inactive) | > 100 µM (inactive) | > 100 µM (inactive) | > 100 µM (inactive) | > 100 µM (inactive) | > 100 µM (inactive) | > 100 µM (inactive) | > 100 µM (inactive) | > 100 µM (inactive) | > 100 µM (inactive) | > 100 µM (inactive) | > 100 µM (inactive) | – | – | – |
| CC1CC(=O)CC[C@@H]1OCc1ccccc1 (some centres undefined) | > 100 µM (inactive) | > 100 µM (inactive) | > 100 µM (inactive) | 54.3 µM (inactive) | > 100 µM (inactive) | > 100 µM (inactive) | > 100 µM (inactive) | > 100 µM (inactive) | > 100 µM (inactive) | – | > 100 µM (inactive) | > 100 µM (inactive) | > 100 µM (inactive) | > 100 µM (inactive) | > 100 µM (inactive) | > 100 µM (inactive) | > 100 µM (inactive) | – | – | – |
| CCCCOCCOCCOC1=C(Cl)C(=O)c2c(O)ccc(O)c2C1=O | 0.283 µM (active) | 0.512 µM (active) | 1.79 µM (inactive) | 0.0138 µM (active) | 1.85 µM (inactive) | 0.877 µM (active) | 1.59 µM (inactive) | 4.25 µM (inactive) | – | 0.357 µM (active) | 1.51 µM (inactive) | 0.209 µM (active) | 0.8 µM (active) | 1.61 µM (inactive) | 2.36 µM (inactive) | 1.46 µM (inactive) | 0.259 µM (active) | 0.488 µM (active) | 0.488 µM (active) | 2.4 µM (inactive) |
| CC(C)c1cccc(C(C)C)c1NC(=O)C(=O)C(C(=O)c1ccccc1-c1ccccc1)C1OC(=O)c2ccccc21 (centres undefined) | 19.9 µM (inactive) | 14.2 µM (inactive) | 17.8 µM (inactive) | 11.6 µM (inactive) | 28 µM (inactive) | – | 32.3 µM (inactive) | – | 22.9 µM (inactive) | 20.1 µM (inactive) | 12.6 µM (inactive) | 30.1 µM (inactive) | 17.5 µM (inactive) | 20.8 µM (inactive) | – | 14.8 µM (inactive) | 30.9 µM (inactive) | – | – | – |
| COc1ccc(O)c(/C(C)=N/NC(=S)N(C)C)c1 | 28.6 µM (inactive) | 4.48 µM (inactive) | > 40.7 µM (inactive) | 36.5 µM (inactive) | 23.4 µM (inactive) | 37.3 µM (inactive) | 13.5 µM (inactive) | 42.3 µM (inactive) | – | 35.7 µM (inactive) | 64 µM (inactive) | 16.7 µM (inactive) | 26.1 µM (inactive) | > 44.2 µM (inactive) | > 100 µM (inactive) | 71 µM (inactive) | 21.3 µM (inactive) | 40.9 µM (inactive) | > 20.6 µM (inactive) | > 100 µM (inactive) |
| COc1ccc2nc3c(c(N)c2c1)C1CCC3C1(C)C (centres undefined) | 25.5 µM (inactive) | 35.9 µM (inactive) | 22.5 µM (inactive) | 46.9 µM (inactive) | 70.5 µM (inactive) | 31.9 µM (inactive) | > 100 µM (inactive) | 28.1 µM (inactive) | – | 30.8 µM (inactive) | 38.2 µM (inactive) | 39.3 µM (inactive) | 15.3 µM (inactive) | 52.1 µM (inactive) | 25.1 µM (inactive) | 24.3 µM (inactive) | 17.1 µM (inactive) | 22.7 µM (inactive) | 24 µM (inactive) | > 100 µM (inactive) |
| COc1ccccc1N1C(=O)CC(=O)N(C(=O)CCCCCCCCC(=O)N2C(=O)CC(=O)N(c3ccccc3OC)C2=S)C1=S | > 100 µM (inactive) | 95.3 µM (inactive) | > 100 µM (inactive) | 35.1 µM (inactive) | 53.7 µM (inactive) | 55.2 µM (inactive) | > 100 µM (inactive) | > 100 µM (inactive) | – | > 100 µM (inactive) | > 100 µM (inactive) | > 100 µM (inactive) | 41.8 µM (inactive) | > 100 µM (inactive) | > 100 µM (inactive) | > 100 µM (inactive) | > 100 µM (inactive) | 87.3 µM (inactive) | 43.7 µM (inactive) | 69 µM (inactive) |
| CC(=O)CCCCCCCCCCCC[C@@H]1CC[C@H](C)[C@H](O)N1 | > 100 µM (inactive) | 40.3 µM (inactive) | > 100 µM (inactive) | > 100 µM (inactive) | > 100 µM (inactive) | > 100 µM (inactive) | > 100 µM (inactive) | > 100 µM (inactive) | > 100 µM (inactive) | > 100 µM (inactive) | – | > 100 µM (inactive) | 97.7 µM (inactive) | – | – | > 100 µM (inactive) | > 100 µM (inactive) | – | – | – |
| COc1cccc(NC(=S)Nn2c(C)nc3ccccc3c2=O)c1 | > 100 µM (inactive) | > 100 µM (inactive) | > 100 µM (inactive) | > 100 µM (inactive) | > 100 µM (inactive) | – | > 100 µM (inactive) | > 100 µM (inactive) | > 100 µM (inactive) | > 100 µM (inactive) | > 100 µM (inactive) | > 100 µM (inactive) | 71.6 µM (inactive) | > 100 µM (inactive) | > 100 µM (inactive) | > 100 µM (inactive) | > 100 µM (inactive) | – | – | – |
| CCN(CC)CCNC(=O)c1cccc2cc3ccccc3nc12 | 3.49 µM (inactive) | 5.57 µM (inactive) | 6.15 µM (inactive) | 2.96 µM (inactive) | 3.56 µM (inactive) | 11.6 µM (inactive) | 3.45 µM (inactive) | 8.93 µM (inactive) | 3.95 µM (inactive) | 9.71 µM (inactive) | 4.49 µM (inactive) | 4.48 µM (inactive) | 4.79 µM (inactive) | 5.18 µM (inactive) | 6.92 µM (inactive) | – | 4.44 µM (inactive) | – | – | – |
| c1cc2nnc1SCCCSc1ccc(nn1)SCCCSc1ccc(nn1)SCCCS2 | > 100 µM (inactive) | > 100 µM (inactive) | 61 µM (inactive) | > 100 µM (inactive) | > 100 µM (inactive) | > 100 µM (inactive) | > 100 µM (inactive) | > 100 µM (inactive) | – | > 100 µM (inactive) | 82.4 µM (inactive) | > 100 µM (inactive) | > 100 µM (inactive) | > 100 µM (inactive) | > 100 µM (inactive) | > 100 µM (inactive) | > 100 µM (inactive) | > 100 µM (inactive) | 97.3 µM (inactive) | 32.4 µM (inactive) |
| CCn1c(SCC(=O)N/N=C2\SCC(=O)N2c2ccc(C)cc2)nc2ccccc2c1=O | 33.7 µM (inactive) | 25.2 µM (inactive) | 19.1 µM (inactive) | 25.9 µM (inactive) | 21.2 µM (inactive) | 21.4 µM (inactive) | 18.6 µM (inactive) | 19.7 µM (inactive) | – | 20.6 µM (inactive) | 17.6 µM (inactive) | 18.7 µM (inactive) | 15.3 µM (inactive) | 27 µM (inactive) | 20.8 µM (inactive) | 21.9 µM (inactive) | 50.9 µM (inactive) | 25.1 µM (inactive) | 20.2 µM (inactive) | 16.4 µM (inactive) |
